According to PMC10918664, “New Triazole-Based Potent Inhibitors of Human Factor XIIa as Anticoagulants” (ACS Omega, 2024):
Like-named read-outs stand apart in the source and are kept apart here.

Key:
[1] = molecular target: T1, human FXIIa (Homo sapiens, UniProt P00748); assay: Direct inhibition of human FXIIa, chromogenic substrate hydrolysis assay; conditions: for HS (Hill slope) / ΔY (%) efficacy of inhibition: pH 7.4, 37 °C; for significant inhibitory activity against FXIIa in the screening: at 200 μM; for subclass of inhibitor based on selectivity studies: versus thrombin, FIXa, FXa, FXIa
T1 sequence (P00748 373-615 limits assumed): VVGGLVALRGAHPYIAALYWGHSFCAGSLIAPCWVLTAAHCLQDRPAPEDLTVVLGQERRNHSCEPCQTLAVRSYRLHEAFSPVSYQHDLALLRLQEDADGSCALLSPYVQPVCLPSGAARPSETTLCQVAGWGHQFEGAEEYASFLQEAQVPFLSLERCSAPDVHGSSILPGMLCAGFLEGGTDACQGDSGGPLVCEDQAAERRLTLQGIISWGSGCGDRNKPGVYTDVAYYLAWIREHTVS
T1 sequence (P00748 20-372 partner limits assumed): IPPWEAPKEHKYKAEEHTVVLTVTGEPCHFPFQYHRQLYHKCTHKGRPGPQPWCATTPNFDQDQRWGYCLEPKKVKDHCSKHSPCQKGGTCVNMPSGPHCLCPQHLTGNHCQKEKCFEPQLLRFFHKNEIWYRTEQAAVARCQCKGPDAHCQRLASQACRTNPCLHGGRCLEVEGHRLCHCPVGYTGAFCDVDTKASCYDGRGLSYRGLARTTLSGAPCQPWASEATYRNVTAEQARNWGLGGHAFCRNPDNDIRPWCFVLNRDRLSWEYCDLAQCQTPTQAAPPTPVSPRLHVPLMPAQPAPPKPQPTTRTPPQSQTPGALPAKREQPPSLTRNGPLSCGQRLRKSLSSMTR
Description: The slope of the resulting line corresponds to the residual enzyme activity, and the change in residual enzyme activity, relative to the concentration of the inhibitor, is plotted and fitted using the logistic eq 1. […] In this setup, each well of the 96-well microplate contained 175 μL of pH 7.4 TrisHCl buffer, to which 5 μL of potential inhibitors (or vehicle) and 5 μL of human FXIIa (stock concentration: 200 nM) were added sequentially. […] The relative residual FXIIa activity at each inhibitor concentration was computed by comparing the FXIIa activity in the absence and presence of the inhibitor. To obtain the potency (IC50) and efficacy (ΔY) of inhibition, the dose dependence of residual FXIIa activity was fitted to the logistic eq 1.

[2] = molecular target: T2, thrombin (factor IIa) (Homo sapiens, UniProt P00734); parameters: method as in PMID 36321236; conditions: previously reported inhibitor, in figure; read-out: FIIa IC50; cited from earlier work
T2 construct: The prothrombinase complex converts prothrombin (FII) to thrombin (FIIa); purchased Haematologic Technologies (Essex Junction, VT); host or cells: human plasma

[3] = test system: human plasma; parameters: method as in PMID 36321236; conditions: previously reported inhibitor, in figure; read-out: APTT (EC×1.5); cited from earlier work
[4] = molecular target: T3, FXIa (Homo sapiens, UniProt P03951); assay: Inhibition of FXIa, chromogenic substrate hydrolysis assay; format: biochemical; conditions: for IC50: pH 7.4, 37 °C; for selectivity index (IC50 enzyme/IC50 FXIIa): FXIa over FXIIa
T3 construct: purchased Haematologic Technologies (Essex Junction, VT); host or cells: human plasma
T3 sequence (P03951 388-625 limits assumed): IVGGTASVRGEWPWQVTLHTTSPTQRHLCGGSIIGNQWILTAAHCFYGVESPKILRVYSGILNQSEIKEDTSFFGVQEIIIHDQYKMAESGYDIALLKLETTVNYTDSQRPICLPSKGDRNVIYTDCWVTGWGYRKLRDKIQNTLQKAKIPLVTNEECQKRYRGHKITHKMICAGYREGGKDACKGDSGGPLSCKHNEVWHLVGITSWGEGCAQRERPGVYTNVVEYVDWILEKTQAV
T3 sequence (P03951 19-387 partner limits assumed): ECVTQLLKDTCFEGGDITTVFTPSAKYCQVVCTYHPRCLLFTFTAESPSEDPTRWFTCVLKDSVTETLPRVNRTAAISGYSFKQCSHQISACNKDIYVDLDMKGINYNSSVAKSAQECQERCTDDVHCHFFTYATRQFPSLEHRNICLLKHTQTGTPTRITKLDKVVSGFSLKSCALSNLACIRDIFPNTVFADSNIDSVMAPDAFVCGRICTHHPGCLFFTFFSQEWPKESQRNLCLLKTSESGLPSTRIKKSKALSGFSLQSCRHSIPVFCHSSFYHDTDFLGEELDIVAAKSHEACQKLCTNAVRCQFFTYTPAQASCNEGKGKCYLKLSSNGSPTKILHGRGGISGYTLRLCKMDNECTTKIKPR
Description: (§1) The selectivity was evaluated against thrombin and factors IXa, Xa, and XIa.
(§2) These assays were performed by using substrates and conditions appropriate for the enzyme being studied. To conduct selectivity analysis, various concentrations of the inhibitors were utilized, and the residual enzyme activity was assessed at each concentration. […] This allowed for the determination of the corresponding IC50 and efficacy of the enzyme–inhibitor complex. The KM of the chromogenic substrate with its enzyme was employed to ascertain the concentration of the chromogenic substrate used in the inhibition studies.

[5] = molecular target: T4, FIXa (Homo sapiens, UniProt P00740); assay: Inhibition of FIXa, chromogenic substrate hydrolysis assay; format: biochemical; conditions: for IC50: FIXa, pH 7.4, 37 °C
T4 construct: purchased Haematologic Technologies (Essex Junction, VT); host or cells: human plasma
T4 sequence (P00740 227-461 limits assumed): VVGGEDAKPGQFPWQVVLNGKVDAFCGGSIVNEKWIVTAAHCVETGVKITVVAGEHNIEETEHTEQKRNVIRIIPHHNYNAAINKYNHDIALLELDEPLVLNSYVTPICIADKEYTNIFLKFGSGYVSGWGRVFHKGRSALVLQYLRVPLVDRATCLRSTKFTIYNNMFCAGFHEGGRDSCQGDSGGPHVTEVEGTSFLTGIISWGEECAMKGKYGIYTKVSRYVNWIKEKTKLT
T4 sequence (P00740 47-191 partner limits assumed): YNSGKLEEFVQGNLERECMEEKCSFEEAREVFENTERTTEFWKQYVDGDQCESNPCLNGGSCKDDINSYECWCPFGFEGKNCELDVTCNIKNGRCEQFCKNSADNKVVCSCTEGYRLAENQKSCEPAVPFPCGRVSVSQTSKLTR
Description: as §1, §2

[6] = molecular target: T5, FXa (Homo sapiens, UniProt P00742); assay: Inhibition of FXa, chromogenic substrate hydrolysis assay; format: biochemical
T5 construct: purchased Haematologic Technologies (Essex Junction, VT); host or cells: human plasma
T5 sequence (P00742 235-488 limits assumed): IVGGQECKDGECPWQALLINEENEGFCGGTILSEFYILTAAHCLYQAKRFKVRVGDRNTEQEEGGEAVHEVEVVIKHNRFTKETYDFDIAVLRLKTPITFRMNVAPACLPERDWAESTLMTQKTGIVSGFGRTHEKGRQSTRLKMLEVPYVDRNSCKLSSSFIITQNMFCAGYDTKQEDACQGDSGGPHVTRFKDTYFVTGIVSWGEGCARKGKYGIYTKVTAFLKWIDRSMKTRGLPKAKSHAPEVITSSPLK
T5 sequence (P00742 41-179 partner limits assumed): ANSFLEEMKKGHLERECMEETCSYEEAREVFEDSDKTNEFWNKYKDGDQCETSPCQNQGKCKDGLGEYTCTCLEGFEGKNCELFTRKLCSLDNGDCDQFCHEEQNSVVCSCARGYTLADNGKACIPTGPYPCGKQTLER
Description: as §1, §2

[7] = test system: human plasma; assay: Activated partial thromboplastin time (APTT) clotting assay; format: biochemical
Description: The APTT assay is employed to assess the impact of a new potential anticoagulant on clotting driven by the contact/intrinsic pathway, involving FIXa, FXIa, and FXIIa. Conversely, the PT assay is utilized to gauge the impact of the new potential anticoagulant on the extrinsic pathway of coagulation, which includes FVIIa. […] In the PT assay, thromboplastin-D was created by adding 4 mL of distilled water, and the resulting mixture was warmed to 37 °C. […] Upon the addition of 200 μL of prewarmed thromboplastin-D reagent, the clotting time was recorded. In the APTT assay, 90 μL of citrated human plasma was combined with 10 μL of the molecule of interest (or the vehicle) and 100 μL of prewarmed 0.2% ellagic acid. Following a 4 min incubation at 37 °C, clotting was initiated by introducing 100 μL of prewarmed 0.025 M CaCl2, and the clotting time was recorded. In both assays, approximately nine or more concentrations of molecules were employed to generate concentration vs effect profiles. The data were then plotted against a quadratic trendline, enabling the estimation of the concentration required to double the clotting time. Clotting times were similarly measured using 10 μL of highly purified water (negative control). The positive controls used in APTT and PT assays were (1) UFH, antithrombin activator; (2) argatroban, a clinically used thrombin inhibitor; (3) rivaroxaban, a clinically used FXa inhibitor; and (4) C6B7, a monoclonal antibody FXIIa inhibitor.

[8] = molecular target: T2, thrombin (factor IIa); assay: Inhibition of thrombin, chromogenic substrate hydrolysis assay; format: biochemical; conditions: for HS (Hill slope) / ΔY (%) / IC50: thrombin; for selectivity index (IC50 enzyme/IC50 FXIIa): thrombin over FXIIa; for IC50: pH 7.4, 37 °C
Description: as §1, §2

[9] = test system: human plasma; assay: Prothrombin time (PT) clotting assay; format: biochemical; conditions: highest concentration of 2500 μM
Description: The APTT assay is employed to assess the impact of a new potential anticoagulant on clotting driven by the contact/intrinsic pathway, involving FIXa, FXIa, and FXIIa. Conversely, the PT assay is utilized to gauge the impact of the new potential anticoagulant on the extrinsic pathway of coagulation, which includes FVIIa. […] In the PT assay, thromboplastin-D was created by adding 4 mL of distilled water, and the resulting mixture was warmed to 37 °C. […] Upon the addition of 200 μL of prewarmed thromboplastin-D reagent, the clotting time was recorded. In the APTT assay, 90 μL of citrated human plasma was combined with 10 μL of the molecule of interest (or the vehicle) and 100 μL of prewarmed 0.2% ellagic acid. Following a 4 min incubation at 37 °C, clotting was initiated by introducing 100 μL of prewarmed 0.025 M CaCl2, and the clotting time was recorded. In both assays, approximately nine or more concentrations of molecules were employed to generate concentration vs effect profiles. The data were then plotted against a quadratic trendline, enabling the estimation of the concentration required to double the clotting time. Clotting times were similarly measured using 10 μL of highly purified water (negative control). […]

[10] = human FXIIa, Tris–HCl buffer pH 7.4, 37 °C

Compound	HS (Hill slope) ([1]; human FXIIa)	ΔY (%) efficacy of inhibition ([1]; human FXIIa) [%]	IC50 ([4]; FXIa) [nM]	IC50 [1] [nM]	HS (Hill slope) [8]	ΔY (%) [8] [%]	IC50 [8] [nM]	also measured
COC(=O)c1nc(N)n(C(=O)c2ccc(C(C)(C)C)cc2)n1 [RA, reference compound]	1.7 ± 0.4	105 ± 8						IC50 [1, 10]: 110 ± 10 nM; IC50 [2]: 235 nM; EC50 [3]: 340000 nM
COC(=O)c1nc(N)n(C(=O)c2ccccc2Cl)n1 [compound 7]			25900 ± 4400	1700				IC50 [5]: > 200000 nM
COC(=O)c1nc(N)n(C(=O)c2cc(OC)c(OC)c(OC)c2)n1 [compound 8]	1.1 ± 0.1	100 ± 2	14900 ± 1400	45 ± 3	0.9 ± 0.2	102.0 ± 4.5	19 ± 4	HS (Hill slope) ([6]; FXa): 1.2 ± 0.2; ΔY (%) ([6]; FXa): 100.8 ± 2.7%; selectivity index (IC50 enzyme/IC50 FXIIa) ([6]; FXa over FXIIa): 1057.78; IC50 ([6]; FXa, pH 7.4, 37 °C): 47600 ± 5800 nM; HS (Hill slope) ([4]; FXIa): 0.9 ± 0.1; ΔY (%) ([4]; FXIa): 100.3 ± 3.1%; selectivity index (IC50 enzyme/IC50 FXIIa) [4]: 331.11; fold increased potency regarding the effect on APTT ([7]; relative to RA): ~6 fold; selectivity index (IC50 enzyme/IC50 FXIIa) ([5]; FIXa over FXIIa): >4000; IC50 [5]: > 180000 nM; selectivity index (IC50 enzyme/IC50 FXIIa) [8]: 0.42
COC(=O)c1nc(N)n(C(=O)c2ccccc2)n1 [compound 9]	1.1 ± 0.1	92 ± 3	> 50000		1.1 ± 0.2	89 ± 5	54 ± 8	selectivity index (IC50 enzyme/IC50 FXIIa) [8]: 0.23; IC50 ([1]; human FXIIa): 240 ± 10 nM
CC(C)(C)c1ccc(C(=O)n2ncnc2N)cc1 [compound 10]	1.4 ± 0.7	82 ± 8						IC50 ([1]; FXIIa, summary picture in supplement): 8500 nM; IC50 [1, 10]: 8500 ± 1200 nM; fold less potent FXIIa inhibitor ([1]; than inhibitor RA): 77.3 fold
Cc1ccc(S(=O)(=O)n2cnc([N+](=O)[O-])n2)cc1 [compound 12]								significant inhibitory activity against FXIIa in the screening [1]: none
O=C(O)c1nc(NS(=O)(=O)c2ccccc2[N+](=O)[O-])n[nH]1 [compound 13]								effect on APTT ([7]; highest concentration of 2500 μM): did not affect; effect on PT [9]: did not affect; significant inhibitory activity against FXIIa in the screening [1]: none
O=C(O)c1ncn(-c2ccccc2)n1 [compound 14]								significant inhibitory activity against FXIIa in the screening [1]: none
O=C(O)Cc1nc(-c2ccccc2)n[nH]1 [compound 15]								significant inhibitory activity against FXIIa in the screening [1]: none
COC(=O)c1nc(N)n(C(=O)c2ccc(Cl)cc2)n1 [compound 19]	0.8 ± 0.1	102 ± 5		7800				fold decrease in FXIIa inhibition potency ([1]; relative to inhibitor 7 (chlorine ortho to para)): ~4.6 fold
COC(=O)c1nc(N)n(C(=O)c2ccccc2Br)n1 [compound 20]	0.8 ± 0.1	76 ± 5	> 50000	80 ± 10	0.9 ± 0.1	113 ± 8	90 ± 20	selectivity index (IC50 enzyme/IC50 FXIIa) [4]: >625; selectivity index (IC50 enzyme/IC50 FXIIa) [8]: 1.13; subclass of inhibitor based on selectivity studies [1]: dual inhibitors of FXIIa as well as thrombin
COC(=O)c1nc(N)n(C(=O)c2ccc(Br)cc2)n1 [compound 21]	0.5 ± 0.02	109 ± 2	> 50000	900 ± 100	0.5 ± 0.02	112 ± 10	900 ± 200	selectivity index (IC50 enzyme/IC50 FXIIa) [4]: >55.56; selectivity index (IC50 enzyme/IC50 FXIIa) [8]: 1.00; fold decrease in FXIIa inhibition potency ([1]; relative to inhibitor 20 (bromine ortho to para)): ~11.3 fold; subclass of inhibitor based on selectivity studies [1]: dual inhibitors of FXIIa as well as thrombin

Further lines, with some results ahead:

HS (Hill slope) ([1]; human FXIIa)	ΔY (%) efficacy of inhibition ([1]; human FXIIa) [%]	IC50 ([4]; FXIa) [nM]	IC50 [1] [nM]	HS (Hill slope) [8]	ΔY (%) [8] [%]	IC50 [8] [nM]	Compound	also measured
0.8 ± 0.1	74 ± 7	> 50000	32 ± 8	1.2 ± 0.2	118 ± 7	300 ± 50	COC(=O)c1nc(N)n(C(=O)c2ccc(F)cc2)n1 [compound 22]	selectivity index (IC50 enzyme/IC50 FXIIa) [4]: >1562.50; EC50 ([7]; human plasma, read-out: APTT (EC×1.5), effective concentration to double the clotting time): 25000 to 75000 nM; selectivity index (IC50 enzyme/IC50 FXIIa) [8]: 9.38; IC50 [1, 10]: 32 ± 8 nM; fold increase in FXIIa inhibition potency ([1]; relative to inhibitor 9): 7.5 fold; fold more potent FXIIa inhibitor ([1]; than inhibitor RA): 3.4 fold; subclass of inhibitor based on selectivity studies [1]: more specific inhibitors of FXIIa
		> 50000					Cc1cccc(C(=O)n2cnnc2N)c1 [compound 24]	inhibition at 50 µM ([8]; read-out: inhibition of thrombin at 50 μM): 43%
						> 50000	Cc1cc(C)cc(C(=O)n2cnnc2N)c1 [compound 26]	
				1.0 ± 0.3	53 ± 16	250 ± 140	COc1cc(OC)cc(C(=O)n2cnnc2N)c1 [compound 30]	
0.9 ± 0.1	91 ± 9		7900				CCOC(=O)c1nc(N)n(C(=O)c2ccccc2)n1 [compound 31]	
0.9 ± 0.2	67 ± 8		6300				COC(=O)c1nc(N)n(C(C)=O)n1 [compound 32]	
